# In patent US20230310356A1, “COMPOSITION FOR PREVENTING, AMELIORATING, OR TREATING BRAIN DAMAGE AND MILD COGNITIVE IMPAIRMENT COMPRISING GLUTAMINE AS EFFECTIVE COMPONENT” (INDUSTRY-ACADEMIC COOPERATION FOUNDATION GYEONGSANG …, priority 2020, published 2023):
# Legend:
# [1] = tested on: nNOS; test: Double-IHC protein expression after CIS and glutamine supplementation: nNOS; assay type: in vivo, mouse; details: microglial cells in infralimbic cortex and hippocampal CA1 region; glutamine supplementation diet vs stress group
# Experimental: (§1) Control (CTL) is a group which received normal diet (common diet with nutritional balance) without any stress, CTL+Gln group is a normal diet group supplemented with glutamine (150 mg/kg of feed) and without any stress, STR is a normal diet group under stress, and STR+Gln group is a normal diet group supplemented with glutamine (150 mg/kg of feed) under stress. The stress group (STR) was individually brought by force to a restrainer for 2 hours every day (i.e., between 2 PM and 4 PM) so that the animals are applied with chronic immobilization stress for 15 days. To determine the specific changes in the brain tissues after glutamine supplementation, double staining was carried out with a cell marker so that the proteins related to a change in ROS/RNS content (i.e., iNOS; nNOS; and p47phox and p67phox as a subunit of NOX) with cell markers are analyzed by double-IHC (immunohistochemistry). Twenty-four hours after applying the last stress, the mouse was anesthetized with avertin, and perfused with PBS (pH 7.4) and 4% formaldehyde. After that, the brain was removed, fixed, and cut to a thickness with 40 μm. […]
# [2] = tested on: p47phox; test: Double-IHC protein expression after CIS and glutamine supplementation: p47phox; assay type: in vivo, mouse; details: microglial cells in infralimbic cortex and hippocampal CA1 region; glutamine supplementation diet vs stress group
# Experimental: as §1
# [3] = tested on: mouse with cognitive impairment caused by chronic immobilization stress (CIS); test: ORT-OLT after oral administration of glutamine following cognitive impairment caused by CIS; assay type: in vivo; details: 2 weeks CIS, then oral glutamine 45 mg/kg bodyweight/day for 1 week
# Experimental: After the oral administration of glutamine following an occurrence of cognitive impairment that has been caused by chronic immobilization stress (CIS), the effect of treating cognitive impairment was examined. Two weeks after applying CIS, the cognitive ability was tested by ORT-OLT. After that, while orally administering glutamine for 1 week (45 mg glutamine/kg bodyweight/day), a change in cognitive ability was examined from Day 4 (i.e., ORT-OLT were carried out from Day 4 to Day 7).
# [4] = tested on: iNOS; test: Double-IHC protein expression after CIS and glutamine supplementation: iNOS; assay type: in vivo, mouse; details: microglial cells in infralimbic cortex and hippocampal CA1 region; glutamine supplementation diet vs stress group
# Experimental: as §1
# [5] = tested on: ROS/RNS; test: ROS/RNS levels in plasma, PFC and hippocampus after CIS and glutamine supplementation; assay type: in vivo, mouse; details: STR+Gln vs STR
# Experimental: Control (CTL) is a group which received normal diet (common diet with nutritional balance) without any stress, CTL+Gln group is a normal diet group supplemented with glutamine (150 mg/kg of feed) and without any stress, STR is a normal diet group under stress, and STR+Gln group is a normal diet group supplemented with glutamine (150 mg/kg of feed) under stress. The stress group (STR) was individually brought by force to a restrainer for 2 hours every day (i.e., between 2 PM and 4 PM) so that the animals are applied with chronic immobilization stress for 15 days. Fifty-one model animals of the second cohort, i.e., 12 to 13 animals per group, were not subjected to any behavior analysis but immediately sacrificed after completion of the last immobilization stress. Then, ROS/RNS levels in the plasma, PFC, and hippocampus were examined. Specifically, ROS/RNS was examined by using ROS/RNS assay kit (STA-347; Cell Biolabs, San Diego, CA, USA) and following the manufacturer's protocol. PFC and hippocampal tissues were subjected to tissue homogenization by using Bullert blender after adding glass beads to RIPA (radioimmunoprecipitation assay) buffer solution. After the ultrasonication for 2 minutes, they were centrifuged for 10 minutes at conditions including 4° C. and 12,000×g. Then, the measurement of fluorescence intensity using Tecan Infinite F200 PRO MicroReader was repeated 3 times.
# [6] = tested on: corticosterone; test: Change in plasma corticosterone level after CIS and glutamine supplementation; assay type: in vivo, mouse; details: STR+Gln vs STR; glutamine 150 mg/kg of feed
# Experimental: In the present invention, C57BL/6 male mice (7-weeks old, KOATECH, South Korea) were kept under standard conditions (i.e., temperature of 22 to 24° C., humidity of 50 to 70%, and 12-hour light/dark cycle with lighting on 6 AM), and the animals were allowed to have free access to diets and water. The animals used for the present invention were handled according to the protocol (GNU-161128-M0068) acknowledged by Gyeongsang National University Institutional Animal Care and Use Committee (GNU IACUC), which follows the guidelines of National Institutes of Health (NIH, Bethesda, MD, USA). Control (CTL) is a group which received normal diet (common diet with nutritional balance) without any stress, CTL+Gln group is a normal diet group supplemented with glutamine (150 mg/kg of feed) and without any stress, STR is a normal diet group under stress, and STR+Gln group is a normal diet group supplemented with glutamine (150 mg/kg of feed) under stress. The stress group (STR) was individually brought by force to a restrainer for 2 hours every day (i.e., between 2 PM and 4 PM) so that the animals are applied with chronic immobilization stress for 15 days.
smiles,measurement,setting,value
NC(=O)CC[C@H](N)C(=O)O [glutamine],expression amount of nNOS,[1],statistically significant decrement
same,expression amount of p47phox,[2],statistically significant decrement
same,cognitive ability in OLT,[3],restored to the level of stress-free control group
same,cognitive ability in ORT,[3],restored to the level of stress-free control group
same,expression amount of iNOS,[4],statistically significant decrement
same,level of active oxygen/nitrogen species (ROS/RNS) in hippocampus,[5]; hippocampal tissue,lower level
same,level of active oxygen/nitrogen species (ROS/RNS) in plasma,[5]; plasma,lower level
same,level of active oxygen/nitrogen species (ROS/RNS) in PFC,[5]; prefrontal cortex,lower level
same,plasma corticosterone level,[6],statistically significant decrease
